Laboratory results from BindingDB's records for patent US20240034727 (Stingray Therapeutics, 2024).

Target: T1, Ectonucleotide pyrophosphatase/phosphodiesterase family member 1 (Homo sapiens, UniProt P22413)
T1 sequence (P22413 whole entry): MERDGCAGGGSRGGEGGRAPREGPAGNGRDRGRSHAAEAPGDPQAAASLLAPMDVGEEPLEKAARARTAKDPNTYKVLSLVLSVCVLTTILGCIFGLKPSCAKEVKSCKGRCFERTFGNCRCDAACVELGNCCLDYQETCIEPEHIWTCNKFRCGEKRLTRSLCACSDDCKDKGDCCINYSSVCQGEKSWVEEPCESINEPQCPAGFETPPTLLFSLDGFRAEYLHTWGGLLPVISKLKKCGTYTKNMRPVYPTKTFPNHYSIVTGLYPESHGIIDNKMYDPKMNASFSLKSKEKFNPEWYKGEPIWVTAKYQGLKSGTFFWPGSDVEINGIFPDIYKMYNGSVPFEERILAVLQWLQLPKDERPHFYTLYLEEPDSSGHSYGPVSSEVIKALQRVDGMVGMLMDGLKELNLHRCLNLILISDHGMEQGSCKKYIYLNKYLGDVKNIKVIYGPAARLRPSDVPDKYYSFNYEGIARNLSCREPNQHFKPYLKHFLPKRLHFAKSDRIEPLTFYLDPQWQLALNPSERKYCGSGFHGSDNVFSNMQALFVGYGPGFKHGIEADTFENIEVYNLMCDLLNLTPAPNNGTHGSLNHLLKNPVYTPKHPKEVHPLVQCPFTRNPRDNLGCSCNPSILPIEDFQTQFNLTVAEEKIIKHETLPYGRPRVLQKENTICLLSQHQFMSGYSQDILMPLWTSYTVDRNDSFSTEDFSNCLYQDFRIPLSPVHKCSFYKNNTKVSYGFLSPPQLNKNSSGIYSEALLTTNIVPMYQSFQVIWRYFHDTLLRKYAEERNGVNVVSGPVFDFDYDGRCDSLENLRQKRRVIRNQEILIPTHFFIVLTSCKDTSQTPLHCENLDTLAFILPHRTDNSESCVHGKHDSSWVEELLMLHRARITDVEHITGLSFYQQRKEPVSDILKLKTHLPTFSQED
Assay: ENPP1 Inhibition Assay
Method: Assay Buffer: 1 mM CaCl2), 0.2 mM ZnCl2, 50 mM Tris, pH 9.0. Substrate: 8 mM Thymidine 5′-monophosphate p-nitrophenol ester sodium salt (Sigma Cat #T4510). Enzyme: 5 ng/L Recombinant Human ENPP-1 Protein (R&D Cat #6136-EN-010) in DMSO in 96-well clear assay plates. An eight point serial dilution of drugs was prepared in 10 in assay buffer with the final assay concentrations starting at 10 μM, 3 μM, 1 μM, 0.3 μM and 0 μM. A dilution of DMSO was included as a control. The assay plate was set up as follows with each well in duplicate: 81 μL assay buffer+10 μL ENPP1 inhibitor or DMSO+5 μL Substrate+4 μL Enzyme. Both the enzyme and substrate was added to opposite sides of the well to ensure that there was no interaction until all wells had both components. The plate was then centrifuged gently for 10 seconds, followed by an incubation at 37 C. for 45 minutes. The reaction was quantified by measuring absorbance at 405 nm using the Envision. IC50 values are determined using GraphPad Prism 5 software. The data were entered as an X-Y plot into the software as percent inhibition for each concentration of the drug. The concentration values of the drug were log transformed and the nonlinear regression was carried out using the sigmoidal dose-response (variable slope) option within the GraphPad software to model the data and calculate IC50 values. […]

O=C(CSc1nc(C(=O)O)c[nH]1)NCc1cccc(Cl)c1 [US20240034727, Compound I-21] was tested, and the IC50 was > 10 µM.
COc1ccc(NC(=O)CSc2nc(C(=O)O)c[nH]2)cc1Cl [US20240034727, Compound I-35] was tested, and the IC50 was < 0.2 µM.
